In PMC12040169 (PLOS Biology, 2025):

Assay: in vitro
Conditions: human, hela cells, % viability

SMILES	viability at 28.5 h, 10 µM [%]
CCCCCn1c(O)nnc1SCc1csc(CS(=O)(=O)c2ccc(Cl)cc2)n1 [CBK007176]	80.7
CCn1cnc2cc(NC(=O)C3CC4C=CC3C43CC3)ccc21 (centres unmarked) [CBK281384]	73.8
CCN(CC)CCOC(=O)c1ccc(N)cc1 [CBK004330C]	84.5
CCOc1ccccc1C(=O)Nc1cnc(-c2cccc(C)c2)c(-c2ccc(N)cc2)n1 [CBK036783]	107
O=C(Nc1cccnc1)c1cc2cc(OC(F)(F)F)ccc2[nH]1 [CBK107313]	95.1
O=C(c1cn(-c2cc(Nc3ccccc3)ncn2)cn1)N1CCOCC1 [CBK288610]	103
CCOC(=O)C(N)CSC1CC(=O)N(c2ccc(Br)cc2)C1=O (centres unmarked) [CBK017250C]	102
COc1ccc(CN[C@@H]2CCC[C@H]2Cc2cc(C)no2)cc1 [CBK285401]	94.4
COc1ccc(-c2nc(NC(=O)c3cnccn3)cnc2-c2ccc(F)cc2)cc1 [CBK037150]	104
CC(=O)N1CCc2cc(NCc3nc4ccccc4n3C(C)c3ccccc3)ccc21 (centres unmarked) [CBK285621]	81.7
O=C(Nc1ccccc1)c1cccc(S(=O)(=O)NCc2ccncc2)c1 [CBK269980]	102
CN(C)CCC(c1ccccc1)n1cncc1-c1cnn(C)c1 (centres unmarked) [CBK281742]	93.6
COc1ccc(C(C)C)cc1-c1cncc(N[C@@H](CO)C(C)C)n1 [CBK065356]	102
CN1CCN(CCC(=O)N2CCN(C(=O)c3ccco3)CC2)CC1 [CBK144481]	89.3
COCCCNC(=O)c1cnn2c(C)c(Cc3cccc(F)c3)c(C)nc12 [CBK162126]	116
Nc1ncnc(N(c2ccccc2)c2ccccc2)n1 [CBK288139]	104
CCN(CC)c1ccc(CN(CCCN(C)C)C(=O)NCc2ccc(F)cc2)cc1 [CBK159410]	89.9
O=C1CCc2cc(S(=O)(=O)Nc3ccc(OCc4ccccc4)cc3)ccc2N1 [CBK286365]	90
OCc1ccccc1CN1CCOCC1 [CBK264388C]	83.3
O=C(NCc1ccco1)[C@@H]1C=CCN1C(=O)Nc1ccccc1Cl [CBK284269]	84.3
O=c1c2cn[nH]c2nc(SCc2ccc3c(c2)OCCO3)n1-c1ccccc1 [CBK266593]	91.8
Cc1ccc(-c2cncc(N(C)CCN(C)C)n2)cc1C [CBK065990]	112

SMILES	viability at 28.5 h, 10 µM [%]
Cc1ccc(NC(=O)c2cc(NC(=O)C3CC=CCC3C(=O)O)ccc2N2CCOCC2)cc1Cl (centres unmarked) [CBK265323]	105
O=C(Nc1ccc2cc(Br)cnc2n1)c1ccccc1[N+](=O)[O-] [CBK063253]	96.8
O=C(NCCCn1cccc1)N1CCN(Cc2ccc(F)cc2)CC1 [CBK306994]	107
CC(C)CCc1c(O)nc(SCCN2CCOCC2)n(-c2ccccc2)c1=O [CBK263363C]	85.5
Cc1ccc(-c2csc3nc(SCC(=O)NCC4CCCO4)n(-c4ccccc4)c(=O)c23)cc1 (centres unmarked) [CBK265610]	82.6
CC1(C)CC(=O)C2=C(C1)Nc1nn(-c3ccccc3)c(O)c1C2c1cccs1 (centres unmarked) [CBK266333]	94
C=CCOc1c(CNc2cccc(C(=O)O)c2)cccc1OC [CBK074432]	95.6
Nc1nc(CCC(=O)N2Cc3cnn(Cc4ccc(F)cc4)c3C2)cs1 [CBK307019]	99.6
Cn1cncc1C(=O)NC1Cc2ccccc2C1 [CBK200362]	107
CCOC(=O)c1sc(NS(=O)(=O)Cc2ccccc2[N+](=O)[O-])nc1C [CBK047458]	98.5
O=C(O)c1sccc1NS(=O)(=O)Cc1ccccc1 [CBK004561]	92.3
CC(=O)Nc1ccc(Nc2cc(-c3ccco3)ncn2)cc1 [CBK090719]	100
Cc1ccc(NC(=O)CSc2nnc(C(O)c3ccccc3)n2-c2ccccc2)c(Br)c1 (centres unmarked) [CBK267421]	89.8
Cc1nc(C)c(-c2csc(Nc3ccc(S(N)(=O)=O)cc3)n2)s1 [CBK263292B]	95.8
COc1ccc2[nH]cc(CCNC(=O)c3cccnc3)c2c1 [CBK122722]	101
CN(C)c1nc(NCc2ccccc2)nc(SCC(=O)Nc2ccccc2)n1 [CBK268810]	88.9
CCN1CCN(Cc2c(C)nc3ccc(C)cc3c2O)CC1 [CBK263699]	89.8
O=C(CSCc1c(Cl)cccc1Cl)Nc1ccc(-c2nnc(-c3ccccc3)o2)cc1 [CBK267817]	99.7
CC(C)CNC(=O)N1CCN(C2CCN(C)CC2)CC1 [CBK155902]	95.3
O=C(NCc1ccco1)c1cc(-c2ccc(Cl)cc2)cnc1N1CCOCC1 [CBK076352]	87
CCC(O)CN1CCCC(c2nc3cc(C)ccc3[nH]2)C1 (centres unmarked) [CBK304854]	88.8
CC(C)(C)C(=O)N1CCC(c2[nH]ncc2-c2ccncc2)CC1 [CBK284211]	88.2

SMILES	viability at 28.5 h, 10 µM [%]
CC(Oc1ccc(Cl)cc1Cl)C(=O)N1CCN(Cc2ccc3c(c2)OCO3)CC1 (centres unmarked) [CBK074438]	95.2
CC(=O)NC[C@H]1CN(c2ccc3c(c2)CCN(C(=O)Oc2ccccc2)CC3)C(=O)O1 [CBK018498]	91.2
COc1ccccc1CNC(=O)c1cccc(C)c1[N+](=O)[O-] [CBK265703]	87.8
O[C@@H]1C[C@@H](c2nc(-c3cccnc3)no2)N(Cc2cccs2)C1 [CBK288840]	111
O=C(O)CSc1nc2ccc(NC(=O)c3ccccc3Cl)cc2s1 [CBK299791]	110
Cc1cc(C)c2c(N)c(-c3ccncc3)sc2n1 [CBK288189]	88.7
Cc1cccc(Oc2ccccc2NS(=O)(=O)c2ccc3c(c2)N(CC(=O)O)C(=O)CO3)c1 [CBK295287]	92.1
Cc1cccn2cc(CCNC(=O)CN3Cc4ccccc4C3)nc12 [CBK305166]	101
CN(C)c1nc(N(C)C)n(C(=O)c2cccs2)n1 [CBK019805]	99.3
COc1ccc(-c2cc(C(=O)Nc3ccc4ncccc4c3)cnc2-c2ccccc2)cc1 [CBK036623]	106
COc1cc(CC(=O)N2CCc3c(sc4ncnc(N)c34)C2)ccc1C [CBK306013]	103
N#CC(C(=O)CN1CCN(Cc2ccccc2)CC1)c1ccccc1 (centres unmarked) [CBK269386]	99.6
O=C(O)CN(c1ccc2c(c1)OCCO2)S(=O)(=O)c1ccccc1 [CBK268017]	115
CS(=O)(=O)c1ccc2nc(NC(=O)c3ccco3)sc2c1 [CBK287341]	95.4
Cc1n[nH]c(C)c1CC(=O)NC(Cc1cccs1)c1ccccn1 (centres unmarked) [CBK285208]	111
c1cncc(CN2CCN(Cc3c[nH]c4ccccc34)CC2)c1 [CBK218281]	92.2
Cc1ccnn1CCC(=O)N1CCC(c2cc3cccnc3[nH]2)CC1 [CBK284912]	95.2
COc1ccc(CN2CCC(Cc3ccccc3-c3ccc(C)cc3C)(C(=O)O)CC2)cc1 [CBK286421]	88.5
O=C(NC/C=C/c1cn(C2CC(O)C(CO)O2)c(=O)[nH]c1=O)C(F)(F)F (centres unmarked) [CBK201249]	109
COc1cc(/C=c2\sc3nc(-c4ccccc4OC(C)=O)nn3c2=O)ccc1OCc1ccccc1 [CBK264575]	99.2
CCc1ccc(CNC(=O)Cn2nnnc2-c2ccc(CN3CCC(C)CC3)cn2)cc1 [CBK153930C]	85.6
O=C(NC1CCN(CC2(c3ccccc3)CC2)CC1)C1CCC1 [CBK285322]	98.9

SMILES	viability at 28.5 h, 10 µM [%]
CCn1cc(NC(=O)CC2CCN(Cc3cccc(C(F)(F)F)c3)CC2)cn1 [CBK286118]	89.9
O=C(c1ccc(-n2cccn2)nc1)N1CCN(c2ccccc2O)CC1 [CBK297794]	83.8
CN(C)CCCNC(=S)NC(=O)c1ccccc1 [CBK265317]	117
O=C(NCC(CN1CCOCC1)([N+](=O)[O-])[N+](=O)[O-])c1ccccc1 [CBK261339]	100
CCCc1nn(CC(=O)NC(C)(C)C)c(=O)c2cc3ccsc3n12 [CBK284148]	83.7
CCN(CC)C(=O)C1CCCN(C(=O)NCC(c2ccccc2)c2ccccc2)C1 (centres unmarked) [CBK156145]	94.4
Cc1nn(C)c(Cl)c1S(=O)(=O)NC1(c2ccc(F)cc2)CC1 [CBK282800]	97.5
COc1ccc2nc(Nc3nnc(-c4ccco4)o3)sc2c1 [CBK287486]	102
O=C(Nc1ccc(F)cc1)c1ccccc1NS(=O)(=O)c1cc(Br)c(Cl)s1 [CBK045405]	92.8
COCCCNC(=O)COc1cc(C)ccc1C [CBK264625]	88.4
N#Cc1ccccc1Cn1cc(C(=O)C(N)=O)c2ccccc21 [CBK269862]	93.5
Cc1cc(NC(=O)c2sc3nc4c(cc3c2N)N2CCC4CC2)no1 [CBK270217]	100
O=[N+]([O-])c1cc(S(=O)(=O)n2ccc3ccccc32)ccc1N1CCNCC1 [CBK024593C]	91.2
CCCOCC1CCN(C(=O)Nc2ccc(Oc3cccnc3)cc2)C1 (centres unmarked) [CBK306799]	102
CC1=C[C@@H](CNS(C)(=O)=O)[C@H](C(C)C)C[C@H]1Cc1nnc(-c2ccccc2F)o1 [CBK289226]	116
Cc1ccc(CCC(=O)N2CCNCC2C)c(C)c1 (centres unmarked) [CBK304481]	90
CCN1C(=O)c2cccc3c(S(=O)(=O)N4CCCC4C(=O)O)ccc1c23 (centres unmarked) [CBK267169]	109
CC(C)(C)Nc1nc(OCC#N)nc(N2CCCCC2)n1 [CBK269483]	97.2
c1ccc2c(c1)CCCN2Cc1nc2ccccc2[nH]1 [CBK138329]	107
COC(=O)c1c(O)noc1C [CBK023348]	95.6

Same assay, conditions: human, hela cells, % viability, bulk resorufin, single well

SMILES	viability at 28.5 h, 10 µM [%]
O=C(NCCCn1ccnc1)c1cc([N+](=O)[O-])cc([N+](=O)[O-])c1 [CBK261773]	87.5
O=C(Cc1cccs1)N1CCC2(CC1)OCc1ccccc1O2 [CBK061086]	86.8
COc1ccccc1N1C(=O)NC(=O)/C(=C/NCCCO)C1=O [CBK261618]	87.8
